Article PMC11745148, “Identification of Cannabidiolic and Cannabigerolic Acids as MTDL AChE, BuChE, and BACE‐1 Inhibitors Against Alzheimer's Disease by In Silico, In Vitro, and In Vivo Studies” (Phytotherapy Research, 2024)
Like-named read-outs stand apart in the source and are kept apart here.

What was measured:
[1] = target: T1, mouse BACE-1 (Mus musculus, UniProt P56818); assay: BACE-1 activity, fluorimetric method; format: biochemical; settings: for IC50: mouse BACE-1, pH 4.5, semilogarithmic plot
T1 construct: purchased Life Technology

[2] = target: T2, Human β-amyloid peptide (1–40) (Homo sapiens, UniProt P05067); assay: Aβ 1–40 self-aggregation inhibition assay (thioflavine T); format: biochemical; settings: 96 μM peptide, 37°C, 24 h
T2 construct: Human β‐amyloid peptide (1–40, cat. ab120479); purchased Abcam ab120479

[3] = target: T3, butirrylcholinesterase from equine serum BuChE (Equus caballus, UniProt P81908); assay: Cholinesterase activity by the Elmann method, kinetic parameters and Ki on BuChE; format: biochemical; settings: for inhibition type on BuChE: decrease of Vmax without affecting Km
T3 construct: purchased Sigma-Aldrich; host or cells: equine serum

[4] = target: T4, Acetylcholinesterase from Electrophorus electricus AChE (Electrophorus electricus, UniProt O42275); assay: Cholinesterase activity by the Elmann method, kinetic parameters and Ki on AChE; format: biochemical; settings: for inhibition type on AChE: increase in Km without affecting Vmax
T4 construct: purchased Sigma-Aldrich

[5] = test system: TRPM7; settings: ref Suzuki et al. [2023]; cited from earlier work
[6] = test system: LEC-DG pathway (hippocampus) of sAβ-injected mice; assay: In vivo LTP recording in the LEC-DG pathway of sAβ-injected mice; set-up: species or system CD1 male mice; settings: 10 mg/kg i.p. repeated; for fEPSP slope after TBS: 30–60 min after TBS, sAβ/veh 110.92 ± 0.86; for fEPSP slope after TBS / fEPSP amplitude 30–60 min after TBS: relative to baseline; for fEPSP amplitude 30–60 min after TBS: sAβ/veh 110.5 ± 1.73
[7] = test system: sAβ-injected mice; assay: Tail suspension test in sAβ-induced AD mouse model; format: in vivo, CD1 male mice; settings: 10 mg/kg i.p. repeated, days 3 to 10 after sAβ; sAβ/veh 74.250 ± 7.465; mean ± SEM
[8] = especially in a tween-based vehicle; ref Anderson et al. [2019]; cited from earlier work
[9] = test system: TRPM7; assay: Trpm7 mRNA expression in hippocampus by qPCR; format: in vivo, mouse; settings: treatment day 3 to 10 postinduction; upregulated by sAβ
[10] = target: T5, GPR109A (HCA2) (Homo sapiens, UniProt Q8TDS4); assay: β-arrestin recruitment assay on GPR109A (HCA2-Tango, HTLA-HEK293 cells); format: cell-based; settings: HTLA-HEK293 cells expressing HCA2; different doses; 20 h; vs vehicle
T5 construct: Tango fusion module; host or cells: HTLA-HEK293 cells stably expressing β-arrestin2-TEV and tTA-driven luciferase

[11] = test system: PPARα/γ; settings: ref D'Aniello et al. [2019]; cited from earlier work
[12] = target: T6, cannabinoid CB2 receptor (CNR2-Tango) (Homo sapiens, UniProt P34972); assay: β-arrestin recruitment assay, positive control CNR2-Tango; format: cell-based
T6 construct: Tango fusion module; expressed in transfected cells; host or cells: HTLA-HEK293 cells

[13] = test system: sAβ-injected mice; assay: Novel object recognition test in sAβ-induced AD mouse model; format: in vivo, CD1 male mice; settings: 10 mg/kg i.p. repeated, days 3 to 10 after sAβ; test at 1 h; sAβ/veh −0.115 ± 0.030; mean ± SEM
[14] = BuChE, Exp. 1, inhibitor 10 µM, Lineweaver-Burk equation, from decrease of Vmax, mean Ki in μM, read-out: Ki LB
[15] = BuChE, Exp. 1, inhibitor 10 µM, Lineweaver-Burk equation, no inhibitor 0.295
[16] = BuChE, Exp. 1, inhibitor 10 µM, Michaelis-Menten interpolation, from decrease of Vmax, mean Ki in μM, read-out: Ki MM
[17] = BuChE, Exp. 1, inhibitor 10 µM, Michaelis-Menten interpolation, no inhibitor 0.299
[18] = BuChE, Exp. 2, inhibitor 2.66 µM, Lineweaver-Burk equation, from decrease of Vmax, mean Ki in μM, read-out: Ki LB
[19] = BuChE, Exp. 2, inhibitor 2.66 µM, Lineweaver-Burk equation, no inhibitor 0.220
[20] = BuChE, Exp. 2, inhibitor 2.66 µM, Michaelis-Menten interpolation, from decrease of Vmax, mean Ki in μM, read-out: Ki MM
[21] = mean over experiments, n = 4, noncompetitive inhibition, read-out: calculated Ki, BuChE
[22] = AChE, inhibitor 1.25 µM, Lineweaver-Burk equation, from increase of Km, mean Ki in μM, read-out: Ki LB
[23] = AChE, inhibitor 1.25 µM, Michaelis-Menten interpolation, from increase of Km, mean Ki in μM, read-out: Ki MM
[24] = AChE, inhibitor 2.50 µM, Lineweaver-Burk equation, from increase of Km, mean Ki in μM, read-out: Ki LB
[25] = AChE, inhibitor 3.00 µM, Lineweaver-Burk equation, from increase of Km, mean Ki in μM, read-out: Ki LB
[26] = AChE, inhibitor 3.00 µM, Michaelis-Menten interpolation, from increase of Km, mean Ki in μM, read-out: Ki MM
[27] = mean over experiments, n = 6 CBDA, n = 7 CBGA, competitive inhibition, read-out: calculated Ki, AChE

T3 sequence (P81908 whole entry): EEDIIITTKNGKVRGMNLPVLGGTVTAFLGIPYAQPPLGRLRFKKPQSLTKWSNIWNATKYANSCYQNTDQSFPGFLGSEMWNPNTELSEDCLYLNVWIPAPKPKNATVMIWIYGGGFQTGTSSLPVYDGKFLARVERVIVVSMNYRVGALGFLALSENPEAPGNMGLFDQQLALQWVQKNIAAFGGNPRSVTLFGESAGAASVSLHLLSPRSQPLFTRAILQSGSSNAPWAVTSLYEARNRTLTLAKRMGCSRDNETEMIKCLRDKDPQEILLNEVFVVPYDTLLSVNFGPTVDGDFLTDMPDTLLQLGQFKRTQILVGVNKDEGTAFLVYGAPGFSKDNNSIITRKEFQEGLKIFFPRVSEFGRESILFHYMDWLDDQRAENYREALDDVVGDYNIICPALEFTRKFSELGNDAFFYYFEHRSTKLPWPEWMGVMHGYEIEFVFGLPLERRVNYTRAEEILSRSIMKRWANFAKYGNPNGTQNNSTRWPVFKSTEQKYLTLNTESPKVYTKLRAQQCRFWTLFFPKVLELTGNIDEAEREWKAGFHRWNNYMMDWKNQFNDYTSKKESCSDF
T1 sequence (P56818 46-501): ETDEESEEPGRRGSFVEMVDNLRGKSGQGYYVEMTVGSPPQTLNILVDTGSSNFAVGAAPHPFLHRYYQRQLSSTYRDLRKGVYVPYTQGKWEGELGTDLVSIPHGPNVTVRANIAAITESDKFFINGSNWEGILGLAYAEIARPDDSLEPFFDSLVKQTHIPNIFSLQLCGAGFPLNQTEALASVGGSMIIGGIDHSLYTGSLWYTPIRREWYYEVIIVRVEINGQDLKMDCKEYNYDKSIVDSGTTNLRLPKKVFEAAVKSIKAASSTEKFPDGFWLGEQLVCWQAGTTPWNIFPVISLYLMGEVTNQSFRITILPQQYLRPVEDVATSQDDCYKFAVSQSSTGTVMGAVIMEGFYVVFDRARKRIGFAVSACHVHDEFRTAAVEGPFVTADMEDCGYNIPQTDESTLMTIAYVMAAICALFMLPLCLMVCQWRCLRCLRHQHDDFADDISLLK
T4 sequence (O42275 24-633): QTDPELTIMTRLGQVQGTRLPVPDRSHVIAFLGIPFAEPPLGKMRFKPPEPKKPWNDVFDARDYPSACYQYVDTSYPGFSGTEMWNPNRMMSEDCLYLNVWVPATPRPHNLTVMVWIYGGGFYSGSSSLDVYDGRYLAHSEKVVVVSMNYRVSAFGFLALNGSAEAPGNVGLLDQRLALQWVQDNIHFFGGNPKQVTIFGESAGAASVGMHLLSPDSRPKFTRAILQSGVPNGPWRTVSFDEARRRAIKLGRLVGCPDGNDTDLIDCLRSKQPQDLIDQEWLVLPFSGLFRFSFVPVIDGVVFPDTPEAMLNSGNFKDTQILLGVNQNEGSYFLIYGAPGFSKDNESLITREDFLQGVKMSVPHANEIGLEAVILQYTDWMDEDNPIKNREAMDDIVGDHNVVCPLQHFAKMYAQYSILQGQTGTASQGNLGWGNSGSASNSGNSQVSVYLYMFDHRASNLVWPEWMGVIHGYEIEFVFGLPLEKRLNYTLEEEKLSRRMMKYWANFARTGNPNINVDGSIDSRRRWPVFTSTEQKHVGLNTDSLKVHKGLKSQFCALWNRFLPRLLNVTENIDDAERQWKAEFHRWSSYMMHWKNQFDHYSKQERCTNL
T5 sequence (Q8TDS4 whole entry, the tested form may be a part): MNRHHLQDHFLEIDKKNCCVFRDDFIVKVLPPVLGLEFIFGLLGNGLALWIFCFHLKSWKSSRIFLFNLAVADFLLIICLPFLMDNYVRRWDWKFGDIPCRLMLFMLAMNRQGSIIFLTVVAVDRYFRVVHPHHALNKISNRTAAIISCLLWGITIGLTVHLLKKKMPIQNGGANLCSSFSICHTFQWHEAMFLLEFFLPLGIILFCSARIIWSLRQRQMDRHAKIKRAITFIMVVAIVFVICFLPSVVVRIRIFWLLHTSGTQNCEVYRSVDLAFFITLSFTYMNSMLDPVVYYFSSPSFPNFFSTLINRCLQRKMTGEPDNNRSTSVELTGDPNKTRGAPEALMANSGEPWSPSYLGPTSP
T2 sequence (P05067 672-711 limits assumed): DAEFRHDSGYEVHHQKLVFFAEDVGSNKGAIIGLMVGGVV
T6 sequence (P34972 whole entry, the tested form may be a part): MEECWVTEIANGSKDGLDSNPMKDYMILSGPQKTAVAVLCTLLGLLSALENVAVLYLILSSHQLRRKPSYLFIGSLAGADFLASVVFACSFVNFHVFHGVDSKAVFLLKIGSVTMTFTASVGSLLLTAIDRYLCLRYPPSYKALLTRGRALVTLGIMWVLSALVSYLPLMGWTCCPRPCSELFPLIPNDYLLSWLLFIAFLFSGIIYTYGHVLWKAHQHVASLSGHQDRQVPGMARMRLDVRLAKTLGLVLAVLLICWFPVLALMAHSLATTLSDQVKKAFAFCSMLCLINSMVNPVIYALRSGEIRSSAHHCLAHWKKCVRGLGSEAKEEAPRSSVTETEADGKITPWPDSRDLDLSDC

Q: For `C=C(C)[C@@H]1CCC(C)=C[C@H]1c1c(O)cc(CCCCC)c(C(=O)O)c1O` [CBDA, cannabidiolic acid], which IC50 [1] is on record?
A: Its IC50 is 6.1 ± 0.2 µM.

Q: What about the IC50 [2] of the same compound?
A: The IC50 was 57.5 ± 0.8 µM.

Q: What about the Ki [3, 14] of the same compound?
A: The Ki was 6.1 µM.

Q: And the “Vmax LB” value [3, 15]?
A: Its value is 0.112.

Q: What about the Ki [3, 16] of the same compound?
A: Its Ki is 6.6 µM.

Q: And the “Vmax MM” value [3, 17]?
A: Its value is 0.119.

Q: And the Ki [3, 18]?
A: The Ki was 7.5 µM.

Q: What about the “Vmax LB” value [3, 19] of the same compound?
A: The value was 0.162.

Q: And the Ki [3, 20]?
A: Its Ki is 6.4 µM.

Q: What about the “inhibition type on BuChE” value [3] of the same compound?
A: Its value is “noncompetitive inhibitors”.

Q: What about the Ki [3, 21] of the same compound?
A: The Ki was 6.7 ± 0.6 µM.

Q: What about the Ki [4, 22] of the same compound?
A: The Ki was 55 µM.

Q: What about the Ki [4, 23] of the same compound?
A: The Ki was 32.1 µM.

Q: What about the Ki ([4]; AChE, inhibitor 1.75 µM, Lineweaver-Burk equation, from increase of Km, mean Ki in μM, read-out: Ki LB) of the same compound?
A: The Ki was 4.2 µM.

Q: And the Ki ([4]; AChE, inhibitor 1.75 µM, Michaelis-Menten interpolation, from increase of Km, mean Ki in μM, read-out: Ki MM)?
A: The Ki was 13.9 µM.

Q: And the Ki [4, 24]?
A: Its Ki is 10.5 µM.

Q: What about the Ki [4, 25] of the same compound?
A: The Ki was 10.6 µM.

Q: And the Ki [4, 26]?
A: Its Ki is 3.4 µM.

Q: And the “inhibition type on AChE” value [4]?
A: Its value is “competitive inhibitors”.

Q: And the Ki [4, 27]?
A: Its Ki is 7.9 ± 4.3 µM.

Q: And the “activity on TRPM7” value [5]?
A: The value was “inhibitors of TRPM7”.

Q: And the “fEPSP slope after TBS” value [6]?
A: Its value is 157.46 ± 14.5%.

Q: What about the “fEPSP amplitude 0–15 min (baseline)” value [6] of the same compound?
A: Its value is 99.97 ± 0.024%.

Q: What about the “fEPSP slope 0–15 min (baseline)” value [6] of the same compound?
A: The value was 99.95 ± 0.27%.

Q: And the “fEPSP amplitude 30–60 min after TBS” value [6]?
A: The value was 132.08 ± 2.83%.

Q: And the “immobility in tail suspension test” value [7]?
A: The value was 64.000 ± 12.523 s.

Q: What about the “blood–brain barrier crossing” value [8] of the same compound?
A: Its value is “can cross the blood–brain barrier”.

Q: And the “Trpm7 expression in hippocampus” value [9]?
A: Its value is “reverted to the basal level”.

Q: And the “β-arrestin recruitment / activation of GPR109A” value [10]?
A: The value was “no recruitment of β‐arrestin and no direct receptor activation”.

Q: And the “activity on PPARα/γ” value [11]?
A: The value was “dual PPARα/γ agonists”.

Q: For `CCCC(C)(C)c1ccc2c(c1)OC(C)(C)[C@@H]1CC=C(C)C[C@@H]21` [JWH-133], which “β-arrestin recruitment at CB2 receptor” value [12] is on record?
A: The value was “strong β-arrestin recruitment”.

Q: For `CCCCCc1cc(O)c(C/C=C(\C)CCC=C(C)C)c(O)c1C(=O)O` [CBGA, cannabigerolic acid], which IC50 [1] is on record?
A: The IC50 was 1.4 ± 0.1 µM.

Q: And the “efficiency in inhibiting mBACE-1, CBGA relative to CBDA” value ([1]; ratio of IC50 values)?
A: The value was “roughly 4 times”.

Q: And the IC50 [2]?
A: Its IC50 is 47.7 ± 2.1 µM.

Q: What about the Ki [3, 14] of the same compound?
A: The Ki was 39.2 µM.

Q: And the “Vmax LB” value [3, 15]?
A: The value was 0.235.

Q: What about the Ki [3, 16] of the same compound?
A: Its Ki is 26 µM.

Q: What about the “Vmax MM” value [3, 17] of the same compound?
A: The value was 0.216.

Q: And the Ki [3, 18]?
A: Its Ki is 14.1 µM.

Q: And the “Vmax LB” value [3, 19]?
A: Its value is 0.185.

Q: And the Ki [3, 20]?
A: The Ki was 14 µM.

Q: And the “Vmax MM” value ([3]; BuChE, Exp. 2, inhibitor 2.66 µM, Michaelis-Menten interpolation, no inhibitor 0.249)?
A: The value was 0.209.

Q: What about the “inhibition type on BuChE” value [3] of the same compound?
A: Its value is “noncompetitive inhibitors”.

Q: What about the Ki [3, 21] of the same compound?
A: Its Ki is 23.3 ± 12 µM.

Q: What about the Ki [4, 22] of the same compound?
A: Its Ki is 13.5 µM.

Q: What about the Ki [4, 23] of the same compound?
A: Its Ki is 9.1 µM.

Q: What about the Ki [4, 24] of the same compound?
A: Its Ki is 9.6 µM.

Q: And the Ki ([4]; AChE, inhibitor 2.50 µM, Michaelis-Menten interpolation, from increase of Km, mean Ki in μM, read-out: Ki MM)?
A: The Ki was 12.2 µM.

Q: What about the Ki [4, 25] of the same compound?
A: The Ki was 6.5 µM.

Q: What about the Ki [4, 26] of the same compound?
A: Its Ki is 8.1 µM.

Q: What about the Ki ([4]; AChE, inhibitor 3.75 µM, Lineweaver-Burk equation, from increase of Km, mean Ki in μM, read-out: Ki LB) of the same compound?
A: The Ki was 14.4 µM.

Q: And the Ki ([4]; AChE, inhibitor 3.75 µM, Michaelis-Menten interpolation, from increase of Km, mean Ki in μM, read-out: Ki MM)?
A: Its Ki is 26.7 µM.

Q: What about the “inhibition type on AChE” value [4] of the same compound?
A: Its value is “competitive inhibitors”.

Q: What about the Ki [4, 27] of the same compound?
A: The Ki was 10.5 ± 2.9 µM.

Q: And the “activity on TRPM7” value [5]?
A: The value was “inhibitors of TRPM7”.

Q: What about the “fEPSP slope after TBS” value [6] of the same compound?
A: Its value is 203.21 ± 22.55%.

Q: And the “fEPSP amplitude 0–15 min (baseline)” value [6]?
A: Its value is 100.8 ± 0.61%.

Q: And the “fEPSP slope 0–15 min (baseline)” value [6]?
A: Its value is 100.94 ± 1.15%.

Q: What about the “fEPSP amplitude 30–60 min after TBS” value [6] of the same compound?
A: Its value is 174.34 ± 6.97%.

Q: What about the “immobility in tail suspension test” value [7] of the same compound?
A: The value was 20.500 ± 6.764 s.

Q: And the “NOR index (recognition index)” value [13]?
A: The value was 0.183 ± 0.052.

Q: And the “Trpm7 expression in hippocampus” value [9]?
A: Its value is “reverted to the basal level”.

Q: And the “β-arrestin recruitment / activation of GPR109A” value [10]?
A: The value was “no recruitment of β‐arrestin and no direct receptor activation”.

Q: And the “activity on PPARα/γ” value [11]?
A: Its value is “dual PPARα/γ agonists”.
